{
  "source": "patent US10064922B2",
  "about": "“Compositions and methods for immune tolerance induction” (The Research Foundation for The State University of New York, priority 2011, dated 2018)",
  "test_system": "HA mice",
  "test": "Antigen specificity: ovalbumin given concomitantly with FVIII or FVIII-PS/PC at a distant site",
  "format": "in vivo",
  "conditions": "ovalbumin concomitantly administered at a distant anatomical site; ±SEM",
  "excerpt": "During the reverse vaccination strategy, it is desirable that the immunization should not interfere with the ability of the immune system to mount immune response against other antigens and pathogens. In order to investigate the antigen specificity and effect of immunization on the systemic immune suppression, another foreign antigen; ovalbumin (Ova) was concomitantly administered with either FVIII or FVIII-PS/PC complexes, but at a distant anatomical site.",
  "data": [
    {"substance": "Ova: ovalbumin, another foreign antigen given concomitantly at a distant anatomical site", "values": [
      {"measurement": "Anti-FVIII Nab titers", "result": "no anti-FVIII Nabs"}
    ]}
  ]
}
